One compound from patent publication US4008285A, “Process for making xylitol” (priority 1975, dated 1977) can be followed below.

The data set in a line: Solubility of galactitol (no method). The following applies: galactitol tends to crystallize with xylitol crystals; no solvent or temperature printed. Type of data set: physicochemical.

`OC[C@@H](O)[C@H](O)[C@H](O)[C@@H](O)CO` [galactitol]: the solubility result is “very low solubility”.
